Experimental data taken from US8188048B2 (priority 2006, dated 2012).

Tested on: CCI-rats (chronic constriction injury of the sciatic nerve); tactile allodynia in ipsilateral hindpaw, antinociception in contralateral hindpaw
Set-up: species or system Sprague-Dawley rats
Details: rat, in vivo

In the case of `CN1CC[C@]23c4c5ccc(O)c4O[C@H]2[C@@H](O)C=C[C@H]3[C@H]1C5.Cl` [Morphine, Morphine hydrochloride, reference compound], the ED10 was 0.7 nmol, the ED20 was 3.5 nmol and the “time of peak antiallodynic and antinociceptive responses post-dosing” value was 0.5 to 0.75 h. The “dose-response at high i.t. doses” value (hydrochloride) was “pronounced sub-maximal ‘ceiling’ effect”.
